Measured values published in ChEMBL document CHEMBL6134864, “Discovery of FLT3-ITD Inhibitor Clifutinib: A Novel Biphenylacetylene Urea Derivative in Clinical Trials for the Treatment of Relapsed/Refractory FLT3-ITD+ Acute Myeloid Leukemia” (J Med Chem, 2025).

Assays:
Cytochrome P450 2C19 = Cytochrome P450 2C19 (Homo sapiens, UniProt P33261); test: Inhibition of CYP2C19 in human liver microsomes by UPLC-MS/MS analysis; format: ADME, Microsome
BaF3 [1] = test: cells; settings: Mus musculus, BaF3, 72 h
MOLM-13 = test: Antitumor activity against human MOLM-13 cells xenografted in NOD/SCID mouse model assessed as tumor growth inhibition at […], po in presence of Ara-C by caliper analysis relative to control; format: functional; settings: dose 1.5 mg/kg/day, read-out: TGI
[2] = biological target: Mast/stem cell growth factor receptor Kit (Homo sapiens, UniProt P10721); test: Inhibition of human KIT by biochemical kinase binding assay
[3] = Clearance in monkey plasma at 1 mg/kg, iv measured up to 24 hrs by LC-MS/MS analysis; format: ADME, organism-based, Macaca mulatta; settings: rhesus monkey
BaF3 [4] = test: cells; settings: Mus musculus, BaF3, 72 h; remark: listed apart in the source
Description: Antiproliferative activity against mouse BaF3 cells harbouring FLT3-D83HY mutant assessed as inhibition of cell growth incubated for 72 hrs by celltiter-glo luminescent cell viability assay

BaF3 [5] = test: Antiproliferative activity against mouse BaF3 cells harbouring FLT3-ITD-Y842H mutant assessed as inhibition of cell growth incubated for 72 hrs by celltiter-glo luminescent cell viability assay; format: functional, cell-based; settings: BaF3, 72 h
[6] = Cmax in mouse plasma at 10 mg/kg, po measured up to 24 hrs by LC-MS/MS analysis; format: ADME, organism-based

Sequence of Cytochrome P450 2C19 (P33261 whole entry): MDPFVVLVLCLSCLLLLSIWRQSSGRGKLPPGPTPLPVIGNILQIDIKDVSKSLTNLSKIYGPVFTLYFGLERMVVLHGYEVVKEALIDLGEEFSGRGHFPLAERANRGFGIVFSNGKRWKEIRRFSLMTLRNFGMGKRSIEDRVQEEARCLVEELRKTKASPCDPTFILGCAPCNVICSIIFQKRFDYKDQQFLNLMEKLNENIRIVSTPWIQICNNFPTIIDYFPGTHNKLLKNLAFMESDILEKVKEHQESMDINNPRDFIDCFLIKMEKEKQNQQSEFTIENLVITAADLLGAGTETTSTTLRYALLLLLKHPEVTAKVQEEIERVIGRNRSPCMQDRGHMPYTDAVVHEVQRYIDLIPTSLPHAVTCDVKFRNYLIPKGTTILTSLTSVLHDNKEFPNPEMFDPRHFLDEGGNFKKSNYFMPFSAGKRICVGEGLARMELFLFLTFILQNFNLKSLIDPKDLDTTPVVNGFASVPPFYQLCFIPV
Sequence of Mast/stem cell growth factor receptor Kit (P10721 whole entry): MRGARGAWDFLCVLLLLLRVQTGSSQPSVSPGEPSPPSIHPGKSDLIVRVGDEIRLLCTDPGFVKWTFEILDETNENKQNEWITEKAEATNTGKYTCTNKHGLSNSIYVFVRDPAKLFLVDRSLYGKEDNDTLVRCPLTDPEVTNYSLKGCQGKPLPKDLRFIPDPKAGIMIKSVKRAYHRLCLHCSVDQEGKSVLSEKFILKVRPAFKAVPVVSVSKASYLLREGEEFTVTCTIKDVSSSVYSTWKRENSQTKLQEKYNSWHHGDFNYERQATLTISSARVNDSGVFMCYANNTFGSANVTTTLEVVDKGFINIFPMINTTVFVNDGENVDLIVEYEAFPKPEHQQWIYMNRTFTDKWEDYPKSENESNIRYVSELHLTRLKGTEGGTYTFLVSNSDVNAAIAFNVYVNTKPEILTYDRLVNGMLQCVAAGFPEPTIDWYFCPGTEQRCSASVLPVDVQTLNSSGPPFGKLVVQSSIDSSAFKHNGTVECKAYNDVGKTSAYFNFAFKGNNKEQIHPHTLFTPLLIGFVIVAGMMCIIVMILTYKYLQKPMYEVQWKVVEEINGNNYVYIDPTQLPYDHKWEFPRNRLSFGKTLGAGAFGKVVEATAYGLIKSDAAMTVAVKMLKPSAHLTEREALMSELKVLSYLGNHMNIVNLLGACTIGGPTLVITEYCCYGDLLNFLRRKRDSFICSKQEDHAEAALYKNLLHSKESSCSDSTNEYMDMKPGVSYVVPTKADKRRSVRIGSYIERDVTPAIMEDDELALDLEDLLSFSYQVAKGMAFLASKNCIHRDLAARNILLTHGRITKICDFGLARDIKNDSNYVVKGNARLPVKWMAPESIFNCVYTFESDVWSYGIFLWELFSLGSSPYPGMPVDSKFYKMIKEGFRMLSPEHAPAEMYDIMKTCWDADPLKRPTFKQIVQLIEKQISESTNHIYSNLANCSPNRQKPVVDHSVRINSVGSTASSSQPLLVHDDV

SMILES: CC(C)(C)c1cc(NC(=O)Nc2ccc(C#Cc3ccc(OCCCN4CCOCC4)cc3)cc2)no1
- IC50 (Cytochrome P450 2C19): > 33300 nM
- IC50 (BaF3 [1]): 74.7 nM
- inhibition in vivo at […] (MOLM-13): 80%
- IC50 [2]: 1790 nM
- clearance [3]: 1.35 mL/min/kg
- IC50 (BaF3 [4]): 10.9 nM
- IC50 (BaF3 [5]): 38 nM
- Cmax [6]: 1660 ng/mL
